PMC8831444 (Cancer Discovery, 2021)
Like-named read-outs stand apart in the source and are kept apart here. One block for each compound: values may come before it.

Assays:
Assay type in all cases: cell-based
CDK4 [1] = target: T1, CDK4 (Homo sapiens, UniProt P11802); experiment: IP-kinase assay
Target sequence in this assay (P11802 2-303): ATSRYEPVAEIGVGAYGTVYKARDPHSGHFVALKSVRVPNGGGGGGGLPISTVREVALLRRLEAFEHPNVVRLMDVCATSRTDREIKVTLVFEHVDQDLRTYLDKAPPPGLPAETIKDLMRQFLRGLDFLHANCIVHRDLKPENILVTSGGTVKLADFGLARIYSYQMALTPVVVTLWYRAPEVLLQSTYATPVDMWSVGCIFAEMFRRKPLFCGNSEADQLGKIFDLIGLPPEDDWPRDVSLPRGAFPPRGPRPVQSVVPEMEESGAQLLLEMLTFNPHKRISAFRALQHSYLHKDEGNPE

CDK4 [2] = target: T1, CDK4; experiment: palbociclib-based degrader
Target sequence in this assay (P11802 2-303): as above

CDK6 [3] = target: T2, CDK6 (Homo sapiens, UniProt Q00534); experiment: palbociclib-based degrader
Target sequence in this assay (Q00534 whole entry): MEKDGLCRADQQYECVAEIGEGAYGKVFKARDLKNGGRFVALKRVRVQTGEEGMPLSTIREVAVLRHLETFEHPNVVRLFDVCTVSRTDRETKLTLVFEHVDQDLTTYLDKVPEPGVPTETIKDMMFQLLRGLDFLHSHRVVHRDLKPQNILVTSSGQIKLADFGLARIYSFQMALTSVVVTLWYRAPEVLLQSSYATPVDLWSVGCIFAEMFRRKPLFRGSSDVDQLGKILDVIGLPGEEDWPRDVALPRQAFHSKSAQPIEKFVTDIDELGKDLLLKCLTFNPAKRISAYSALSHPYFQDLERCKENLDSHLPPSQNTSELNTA

CDK6 [4] = target: T2, CDK6; experiment: palbociclib-based degrader; remark: listed apart in the source
Target sequence in this assay (P40337 whole entry): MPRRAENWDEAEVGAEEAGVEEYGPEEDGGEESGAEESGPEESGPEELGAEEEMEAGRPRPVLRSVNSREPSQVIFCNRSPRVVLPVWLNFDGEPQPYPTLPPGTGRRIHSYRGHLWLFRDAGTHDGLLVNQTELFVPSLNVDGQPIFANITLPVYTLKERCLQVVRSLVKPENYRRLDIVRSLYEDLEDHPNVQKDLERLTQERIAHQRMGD
Target sequence in this assay (Q00534 whole entry): as the sequence (Q00534 whole entry) above

CDK4 [5] = target: T1, CDK4; experiment: palbociclib-based degrader; remark: listed apart in the source
Target sequence in this assay (P40337 whole entry): as the sequence (P40337 whole entry) above
Target sequence in this assay (P11802 2-303): as the sequence (P11802 2-303) above

% reduced (CDK4 [1]): 84 % reduced
Compound: CCN1CCN(Cc2ccc(Nc3ncc(F)c(-c4cc(F)c5nc(C)n(C(C)C)c5c4)n3)nc2)CC1 [abemaciclib]

palbociclib-based degrader; CDK4 degradation in MCF7 cells (immunoblot) (CDK4 [2]): ~ 10 nmol/L
palbociclib-based degrader; CDK6 degradation in MCF7 cells (immunoblot) (CDK6 [3]): ~ 10 nmol/L
Compound: CC(=O)c1c(C)c2cnc(Nc3ccc(N4CCN(CC5CCN(c6ccc7c(c6)C(=O)N(C6CCC(=O)NC6=O)C7=O)CC5)CC4)cn3)nc2n(C2CCCC2)c1=O (centres unmarked) [BSJ-03-096]

palbociclib-based degrader; CDK6 degradation in MCF7 cells (immunoblot) (CDK6 [4]): ~ 10 nmol/L
palbociclib-based degrader; CDK4 degradation in MCF7 cells (immunoblot) (CDK4 [5]): ~ 10 nmol/L
Compound: CC(=O)c1c(C)c2cnc(Nc3ccc(N4CCN(CCCCC(=O)N[C@H](C(=O)N5C[C@H](O)C[C@H]5C(=O)N[C@@H](C)c5ccc(-c6scnc6C)cc5)C(C)(C)C)CC4)cn3)nc2n(C2CCCC2)c1=O [BSJ-05-017]
